In ChEMBL document CHEMBL1641539 (Bioorg Med Chem Lett, 2011) one finds residual activity data, which are given here for one compound.

The test system of experiment [1] is Tyrosine-protein kinase BTK (Homo sapiens), Q06187 [R28H]. As to the kind of experiment: Inhibition of human BTK R28H mutant at 10 uM after 60 mins by TR-FRET assay; values are per cent of control. On the technique in general: Time-resolved FRET reads energy transfer from a long-lived donor to a nearby acceptor.
Experiment [2] concerns the target Protein kinase C delta type (Homo sapiens) (UniProt Q05655). As to the kind of experiment: Inhibition of human PKCdelta at 10 uM after 60 mins by TR-FRET assay; values are per cent of control.
For experiment [3], the system named is Tyrosine-protein kinase ABL1 (Homo sapiens), P00519 [H396P]. As to the kind of experiment: Inhibition of human Abl H396P mutant at 10 uM after 60 mins by TR-FRET assay; values are per cent of control.
The target of experiment [4] is Serine/threonine-protein kinase PAK 6 (Homo sapiens) (UniProt Q9NQU5). As to the kind of experiment: Inhibition of human PAK6 at 10 uM after 60 mins by TR-FRET assay; values are per cent of control.
The test system of experiment [5] is Proto-oncogene tyrosine-protein kinase receptor Ret (Homo sapiens), P07949 [V804L]. As to the kind of experiment: Inhibition of human Ret V804L mutant at 10 uM after 60 mins by TR-FRET assay; values are per cent of control.
For experiment [6], the target named is MAP kinase-activated protein kinase 3 (Homo sapiens) (UniProt Q16644). As to the kind of experiment: Inhibition of human MAPKAP-K3 at 10 uM after 60 mins by TR-FRET assay; values are per cent of control.
Experiment [7] has as its target Dual specificity protein kinase CLK2 (Homo sapiens) (UniProt P49760). Nature of the experiment: Inhibition of human CLK2 at 10 uM after 60 mins by TR-FRET assay; values are per cent of control.
The target of experiment [8] is Death-associated protein kinase 2 (Homo sapiens) (UniProt Q9UIK4). Nature of the experiment: Inhibition of human DAPK2 at 10 uM after 60 mins by TR-FRET assay; values are per cent of control.
Chain of Death-associated protein kinase 2 (Homo sapiens) (Q9UIK4 whole entry, looked up): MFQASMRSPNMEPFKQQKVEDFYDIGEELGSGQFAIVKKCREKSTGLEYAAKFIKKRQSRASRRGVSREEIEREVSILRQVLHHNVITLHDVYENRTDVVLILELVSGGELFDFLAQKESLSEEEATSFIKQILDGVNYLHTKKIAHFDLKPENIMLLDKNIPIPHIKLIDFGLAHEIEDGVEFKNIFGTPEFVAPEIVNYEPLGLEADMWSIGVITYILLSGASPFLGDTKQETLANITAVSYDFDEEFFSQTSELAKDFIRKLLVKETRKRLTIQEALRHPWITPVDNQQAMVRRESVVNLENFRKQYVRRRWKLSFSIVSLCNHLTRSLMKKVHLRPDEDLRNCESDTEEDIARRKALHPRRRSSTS
For experiment [9], the target named is Ephrin type-A receptor 4 (Homo sapiens) (UniProt P54764). Nature of the experiment: Inhibition of human EphA4 at 10 uM after 60 mins by TR-FRET assay; values are per cent of control.
Chain of Ephrin type-A receptor 4 (Homo sapiens) (P54764 whole entry): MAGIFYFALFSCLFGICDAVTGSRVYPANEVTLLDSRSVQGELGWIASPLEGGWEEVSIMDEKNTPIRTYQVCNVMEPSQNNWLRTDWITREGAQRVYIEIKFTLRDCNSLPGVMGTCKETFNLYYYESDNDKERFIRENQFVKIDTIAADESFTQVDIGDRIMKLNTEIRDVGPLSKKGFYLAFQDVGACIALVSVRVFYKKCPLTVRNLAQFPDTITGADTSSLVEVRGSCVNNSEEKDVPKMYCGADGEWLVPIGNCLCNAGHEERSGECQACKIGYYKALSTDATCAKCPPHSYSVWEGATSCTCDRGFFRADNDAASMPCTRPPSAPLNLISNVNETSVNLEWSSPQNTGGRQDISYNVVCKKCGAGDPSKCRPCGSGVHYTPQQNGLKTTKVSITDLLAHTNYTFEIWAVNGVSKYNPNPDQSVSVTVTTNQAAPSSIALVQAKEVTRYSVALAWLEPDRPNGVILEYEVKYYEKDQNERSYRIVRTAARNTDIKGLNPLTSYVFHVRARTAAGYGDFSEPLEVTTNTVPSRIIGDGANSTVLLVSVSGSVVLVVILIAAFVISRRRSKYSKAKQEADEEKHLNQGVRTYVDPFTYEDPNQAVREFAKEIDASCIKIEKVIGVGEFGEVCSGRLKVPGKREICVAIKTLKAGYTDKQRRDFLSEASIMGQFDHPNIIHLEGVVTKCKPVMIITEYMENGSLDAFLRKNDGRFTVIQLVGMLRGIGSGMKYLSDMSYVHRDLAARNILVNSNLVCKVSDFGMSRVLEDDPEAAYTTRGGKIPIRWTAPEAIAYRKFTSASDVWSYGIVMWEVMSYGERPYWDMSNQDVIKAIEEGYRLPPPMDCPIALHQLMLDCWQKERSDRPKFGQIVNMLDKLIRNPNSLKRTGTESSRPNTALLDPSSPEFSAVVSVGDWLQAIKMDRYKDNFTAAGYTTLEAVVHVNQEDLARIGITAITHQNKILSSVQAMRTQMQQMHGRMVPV
Experiment [10] deals with Mitogen-activated protein kinase 13 (Homo sapiens) (UniProt O15264). Nature of the experiment: Inhibition of human SAPK4 at 10 uM after 60 mins by TR-FRET assay. Conditions: values are per cent of control.
Chain of Mitogen-activated protein kinase 13 (Homo sapiens) (O15264 whole entry): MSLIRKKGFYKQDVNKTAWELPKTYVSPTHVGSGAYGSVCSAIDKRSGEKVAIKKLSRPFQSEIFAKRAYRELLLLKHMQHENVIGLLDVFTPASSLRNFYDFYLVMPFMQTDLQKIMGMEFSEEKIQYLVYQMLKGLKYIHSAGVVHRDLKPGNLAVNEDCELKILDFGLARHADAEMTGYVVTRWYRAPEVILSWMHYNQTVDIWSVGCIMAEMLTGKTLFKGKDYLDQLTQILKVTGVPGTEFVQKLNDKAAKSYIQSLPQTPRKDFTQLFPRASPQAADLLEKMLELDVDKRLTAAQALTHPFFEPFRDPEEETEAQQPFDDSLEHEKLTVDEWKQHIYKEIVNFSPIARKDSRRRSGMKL
For experiment [11], the target named is SRSF protein kinase 3 (Homo sapiens) (UniProt Q9UPE1). As to the kind of experiment: Inhibition of human MSSK1 at 10 uM after 60 mins by TR-FRET assay; values are per cent of control.
Experiment [12] concerns Mitogen-activated protein kinase 14 (Homo sapiens), Q16539 [T106M]. As to the kind of experiment: Inhibition of human SAPK2a T106M mutant at 10 uM after 60 mins by TR-FRET assay. Conditions: values are per cent of control.
Experiment [13] deals with Ribosomal protein S6 kinase alpha-4 (Homo sapiens) (UniProt O75676). As to the kind of experiment: Inhibition of human MSK2 at 10 uM after 60 mins by TR-FRET assay. Conditions: values are per cent of control.
The target of experiment [14] is Cytoplasmic tyrosine-protein kinase BMX (Homo sapiens) (UniProt P51813). As to the kind of experiment: Inhibition of human Bmx at 10 uM after 60 mins by TR-FRET assay; values are per cent of control.
Chain of Cytoplasmic tyrosine-protein kinase BMX (Homo sapiens) (P51813 whole entry): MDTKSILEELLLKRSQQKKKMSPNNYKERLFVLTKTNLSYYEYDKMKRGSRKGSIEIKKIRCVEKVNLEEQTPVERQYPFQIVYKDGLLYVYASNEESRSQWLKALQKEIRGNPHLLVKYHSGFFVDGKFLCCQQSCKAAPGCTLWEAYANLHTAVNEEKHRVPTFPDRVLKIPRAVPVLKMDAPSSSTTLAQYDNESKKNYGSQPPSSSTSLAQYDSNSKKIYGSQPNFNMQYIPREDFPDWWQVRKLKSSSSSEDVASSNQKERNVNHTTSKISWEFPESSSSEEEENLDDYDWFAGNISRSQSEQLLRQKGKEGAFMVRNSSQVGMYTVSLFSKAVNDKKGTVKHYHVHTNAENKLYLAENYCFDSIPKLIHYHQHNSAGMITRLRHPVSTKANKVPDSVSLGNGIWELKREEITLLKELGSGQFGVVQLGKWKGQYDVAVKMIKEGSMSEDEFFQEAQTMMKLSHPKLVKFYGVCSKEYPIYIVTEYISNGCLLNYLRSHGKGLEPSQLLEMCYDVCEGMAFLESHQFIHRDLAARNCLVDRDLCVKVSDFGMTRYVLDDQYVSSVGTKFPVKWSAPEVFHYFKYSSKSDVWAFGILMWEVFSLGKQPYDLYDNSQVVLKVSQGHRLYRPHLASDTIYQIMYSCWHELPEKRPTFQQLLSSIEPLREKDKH
Experiment [15] concerns the target Serine/threonine-protein kinase STK11 (Homo sapiens) (UniProt Q15831). Nature of the experiment: Inhibition of human LKB1 at 10 uM after 60 mins by TR-FRET assay; values are per cent of control.
The target of experiment [16] is Angiopoietin-1 receptor (Homo sapiens) (UniProt Q02763). Nature of the experiment: Inhibition of human Tie2 at 10 uM after 60 mins by TR-FRET assay; values are per cent of control.
Chain of Angiopoietin-1 receptor (Homo sapiens) (Q02763 whole entry): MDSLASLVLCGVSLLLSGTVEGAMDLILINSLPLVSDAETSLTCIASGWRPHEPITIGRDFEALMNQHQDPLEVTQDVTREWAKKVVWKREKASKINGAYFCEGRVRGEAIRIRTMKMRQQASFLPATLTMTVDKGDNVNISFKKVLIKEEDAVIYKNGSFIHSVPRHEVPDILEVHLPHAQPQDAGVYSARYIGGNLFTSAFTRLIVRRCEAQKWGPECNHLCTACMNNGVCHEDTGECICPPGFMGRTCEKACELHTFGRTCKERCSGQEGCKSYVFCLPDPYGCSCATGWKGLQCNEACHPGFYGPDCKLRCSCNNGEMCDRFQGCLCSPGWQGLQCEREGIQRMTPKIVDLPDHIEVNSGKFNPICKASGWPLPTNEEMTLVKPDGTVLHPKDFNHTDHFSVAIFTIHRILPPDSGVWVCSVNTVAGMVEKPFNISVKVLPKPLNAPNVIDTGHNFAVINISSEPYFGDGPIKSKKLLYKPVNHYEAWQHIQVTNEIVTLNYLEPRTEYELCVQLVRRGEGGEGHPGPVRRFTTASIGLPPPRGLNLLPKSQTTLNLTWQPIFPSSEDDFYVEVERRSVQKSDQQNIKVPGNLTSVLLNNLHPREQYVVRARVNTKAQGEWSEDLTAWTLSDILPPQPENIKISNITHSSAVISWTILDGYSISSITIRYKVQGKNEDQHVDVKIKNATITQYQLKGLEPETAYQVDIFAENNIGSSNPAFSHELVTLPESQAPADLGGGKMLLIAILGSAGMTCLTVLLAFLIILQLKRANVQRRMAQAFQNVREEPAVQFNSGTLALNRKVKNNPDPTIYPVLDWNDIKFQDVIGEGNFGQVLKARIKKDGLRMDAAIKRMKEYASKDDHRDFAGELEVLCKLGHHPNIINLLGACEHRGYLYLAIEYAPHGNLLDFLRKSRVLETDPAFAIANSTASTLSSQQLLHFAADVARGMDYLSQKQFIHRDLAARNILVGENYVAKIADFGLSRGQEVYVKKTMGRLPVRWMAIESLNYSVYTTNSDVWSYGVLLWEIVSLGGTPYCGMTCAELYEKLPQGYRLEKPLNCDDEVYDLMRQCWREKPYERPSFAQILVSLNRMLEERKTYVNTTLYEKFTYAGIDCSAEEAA
Experiment [17] deals with Ephrin type-A receptor 3 (Homo sapiens) (UniProt P29320). Nature of the experiment: Inhibition of human EphA3 at 10 uM after 60 mins by TR-FRET assay; values are per cent of control.
Chain of Ephrin type-A receptor 3 (Homo sapiens) (P29320 whole entry): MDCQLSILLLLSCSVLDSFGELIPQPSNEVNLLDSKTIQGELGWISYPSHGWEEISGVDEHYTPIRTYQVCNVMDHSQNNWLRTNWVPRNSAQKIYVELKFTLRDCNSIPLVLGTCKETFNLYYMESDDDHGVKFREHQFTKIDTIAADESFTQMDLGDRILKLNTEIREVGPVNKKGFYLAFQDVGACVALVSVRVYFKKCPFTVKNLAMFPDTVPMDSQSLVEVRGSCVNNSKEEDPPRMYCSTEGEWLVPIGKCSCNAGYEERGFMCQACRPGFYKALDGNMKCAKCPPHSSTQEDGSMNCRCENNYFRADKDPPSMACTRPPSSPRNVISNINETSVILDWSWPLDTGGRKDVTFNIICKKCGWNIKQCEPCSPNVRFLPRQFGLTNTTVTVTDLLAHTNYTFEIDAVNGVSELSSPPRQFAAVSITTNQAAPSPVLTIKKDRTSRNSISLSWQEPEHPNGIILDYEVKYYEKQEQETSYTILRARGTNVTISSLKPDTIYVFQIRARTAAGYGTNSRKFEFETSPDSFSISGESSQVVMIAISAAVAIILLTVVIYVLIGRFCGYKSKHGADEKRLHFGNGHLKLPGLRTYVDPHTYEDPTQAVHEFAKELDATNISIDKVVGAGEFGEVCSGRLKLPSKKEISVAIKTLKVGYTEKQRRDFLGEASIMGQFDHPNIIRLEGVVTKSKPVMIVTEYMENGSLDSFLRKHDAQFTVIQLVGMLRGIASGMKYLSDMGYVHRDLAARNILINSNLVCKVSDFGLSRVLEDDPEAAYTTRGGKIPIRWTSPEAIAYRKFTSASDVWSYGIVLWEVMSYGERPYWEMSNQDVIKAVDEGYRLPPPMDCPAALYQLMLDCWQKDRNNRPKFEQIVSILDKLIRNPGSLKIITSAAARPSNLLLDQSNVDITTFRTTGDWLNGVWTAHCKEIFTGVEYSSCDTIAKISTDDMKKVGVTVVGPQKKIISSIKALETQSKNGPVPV

Chain of Serine/threonine-protein kinase STK11 (Homo sapiens) (Q15831 whole entry): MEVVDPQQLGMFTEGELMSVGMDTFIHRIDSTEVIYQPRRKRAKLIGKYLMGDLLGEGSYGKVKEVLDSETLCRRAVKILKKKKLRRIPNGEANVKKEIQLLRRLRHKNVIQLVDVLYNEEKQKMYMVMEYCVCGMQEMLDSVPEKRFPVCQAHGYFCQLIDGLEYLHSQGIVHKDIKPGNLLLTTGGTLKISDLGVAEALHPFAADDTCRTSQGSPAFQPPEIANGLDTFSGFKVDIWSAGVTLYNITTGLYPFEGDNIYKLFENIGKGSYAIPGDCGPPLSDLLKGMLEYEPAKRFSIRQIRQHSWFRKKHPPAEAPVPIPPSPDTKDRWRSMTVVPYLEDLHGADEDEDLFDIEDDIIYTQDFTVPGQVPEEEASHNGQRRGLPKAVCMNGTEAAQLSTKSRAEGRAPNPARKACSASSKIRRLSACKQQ

Regarding `S=c1[nH]nc(-c2ccncc2)n1-c1ccc2ccccc2c1`, the residual activity came to 113% in experiment [1]; 111% in experiment [2]; 107% in experiment [3]; 103% in experiment [4]; 109% in experiment [5]; 112% in experiment [6]. Moreover, the residual activity in experiment [7] was 104%; in [8] it was 108%; in experiment [9] it was 127%; in experiment [10] it was 111%; in experiment [11], 121%; in [12], 104%. Besides, the residual activity in experiment [13] is 109%; in experiment [14] it was 136%; in [15], 123%; in experiment [16] it was 103%; in experiment [17], 90%.
